{"source": "patent US20150374784A1", "about": "“COMPOSITIONS AND METHODS FOR REDUCING GERM CELL DEATH” (Los Angeles Biomedical Research Institute at Harbor-UCLA …, priority 2014, published 2015)", "system": "germ cells in seminiferous tubules", "assay": "Germ cell apoptosis in mouse seminiferous tubule cultures ex vivo (TUNEL)", "assay_type": "cell-based", "description": "A total of 15 young adult (12-13 week-old) mice were used for these ex vivo studies. The animals were sacrificed with a 5% pentobarbital (200 mg/Kg) IP injection. Testes were dissected and after removing the tunica albuginea, seminiferous tubules isolated from testes were cut into small segments under a dissecting microscope and light and dark segments were separated by dissection. Ten to twelve segments were placed (2 mm in length) in each well on a six well plate with 2 ml serum free Ham F-10 culture medium (GIBCO, Life Technologies, Thermo Fisher Scientific Corp., Carlsbad, Calif.) with the following treatments: control (Con, n=10), heat (43° C., 15 minutes, used as a positive control, n=10); HN 10 μg/mL (n=9); DOX 10 mcM (Dox10, n=10); and DOX 10 mcM+Humanin 10 μg/mL (Dox10+HN, n=10). For these experiments, n represents the total number of times the treatment was repeated using different animals. After 12 hours of incubation at 34° C. the seminiferous tubules from each treatment group were used to make “squashed” seminiferous tubule samples on a slide for TUNEL (TdT-mediated dUTP nick-end labeling) assay to detect germ cell apoptosis (Erkkila, et al., 1997; Toppari & Parvinen, 1985). To quantify the rate of germ cell apoptosis under a light microscope at 400× magnification, a square grid fitted within the eyepiece provided a reference area of 62,500 μm^2. The TUNEL positive apoptotic germ cells within the frame of grid were counted in 4 segments of seminiferous tubules in each group. The incidence of germ cell apoptosis was expressed as the number of apoptotic germ cells per mm^2.\nA total of 15 mice were used for ex vivo studies. The animals were sacrificed and seminiferous tubules isolated from testes were cut into small segments under a dissecting microscope to identify light (early stages I-IV and late stages XI-XII) of the seminiferous epithelium) and dark (middle stages VII-VIII) segments. Ten to twelve light segments (2 mm in length) were placed per well on a six well plate with 2 ml serum free medium of F-10 Ham nutrient mixture (Gibco, Life Technologies, Grand Island, N.Y.) following these treatments: control (Con, n=15 where n is the number of times the treatment was repeated with segments obtained from different donor animals), heat (43° C., 15 min.; used as a positive control, n=10), HN 10 μg/mL (HN, n=9), doxorubicin 1 μM (Dox1, n=7), doxorubicin 1 μM+HN 10 μg/mL (Dox1+HN, n=7), doxorubicin 10 μM (Dox10, n=10), and doxorubicin 10 μM+HN 10 μg/mL (Dox10+HN, n=10). After 12 hours of incubation at 34° C. with 5% CO2, the seminiferous tubules from the seven treatment groups were used to make “squashed” seminiferous tubule preparations on a slide for TUNEL assay to detect germ cell apoptosis (Erkkila K, et al., 1997). To quantify the rate of germ cell apoptosis, the squashed segments of seminiferous tubules were examined with an American Optical Microscope (Scientific Instruments, Buffalo, N.Y.) with a 40×objective and a 10×eyepiece lens. A square grid fitted within the eyepiece provided a reference area of 62,500 μm^2. The TUNEL positive apoptotic germ cells within the frame of grid were counted in 4 segments of seminiferous tubules in each group. The incidence of germ cell apoptosis was expressed as the number of apoptotic germ cells per mm^2."}
{"sequence": "MAPRGFSCLLLLTSEIDLPVKRRA [HN, 24-amino acid mitochondrial derived peptide]", "values": [{"measurement": "number of apoptotic germ cells induced by DOX", "setting": "HN 10 μg/mL + DOX 10 μM, 12 hours", "result": "significantly reduced the number of apoptotic germ cells"}, {"measurement": "apoptosis induced by low dose doxorubicin", "setting": "HN 10 μg/mL + doxorubicin 1 μM, 12 hours", "result": "did not significantly decrease apoptosis"}, {"measurement": "germ cell apoptosis, HN treatment alone compared with control", "setting": "HN 10 μg/mL, 12 hours ex vivo culture", "result": "had no significant effect on germ cell apoptosis"}, {"measurement": "heat induced germ cell apoptosis", "setting": "HN 10 μg/mL, heat 43° C., 15 min", "result": "prevented the heat induced germ cell apoptosis"}]}
